We go through 7 compounds from patent US20250040539A1, “COMPOSITION COMPRISING AN ANTIMICROBIAL AGENT AND A CARBOXAMIDE” (BASF SE, priority 2021, published 2025).

The test system of assay [1] is bacterial mix: Escherichia coli DSM 1576, Alcaligenes faecalis DSM 13644, Pseudomonas aeuginosa ATCC 15442, Staphylococcus aureus ATCC 6538, Burkholderia …. Put plainly: Preservative activity of a basic composition (10% PG in water, pH 7) with 2-phenoxyethanol against bacterial contamination (Example 2.1). The format is cell-based. Particulars: 10% PG + 0.36% PE + 0.04% amide; for d7 [CFU/ml]: day 7; for d14 [CFU/ml]: day 14; for d21 [CFU/ml]: day 21. As to the method: An aqueous composition of pH 7 comprising 10% by weight of propyleneglycol (PG) as organic solvent, 0.36% by weight of 2-phenoxyethanol (PE) as antimicrobial and 0.04% by weight of the amide listed in the below table was tested for its preserving activity against bacterial contamination (the weight percentages relate to the total weight of the composition). For this purpose, the samples were contaminated with a bacterial mix consisting of: • Escherichia coli DSM 1576 • Alcaligenes faecalis DSM 13644 • Pseudomonas aeuginosa ATCC 15442 • Staphylococcus aureus ATCC 6538 • Burkholderia cepacia DSM 7288 • Pseudomonas putida DSM 12735
The samples were inoculated with the bacterial mix at day 0, 7 and 14 to obtain 10E+06 to 10E+07 CFU/ml inoculation in the test samples (compositions listed in the below table) consisting of 10% by weight of propylene glycol in water and stored at 25° C. for 21 days.
(§1) CFU was determined before re-inoculation at days 7 and 14, and on day 21.

Assay [2] concerns fungal mix (including yeasts and molds): Aspergillus brasiliensis DSM 1988, Rhodotorula mucilaginosa DSM 13621, Yarrowia lipolytica DSM 8218. Put plainly: Preservative activity of a basic composition (10% PG in water, pH 7) with 2-phenoxyethanol against fungal contamination (Example 1.1). Format: cell-based. The note with it: 10% PG + 0.36% PE + 0.04% Amide in water, pH 7, 25° C.; for d7 [CFU/ml]: fungal mix inoculated at day 0, 7 and 14 (1-3x10E+05 CFU/ml), day 7 before re-inoculation; for d14 [CFU/ml] / d21 [CFU/ml]: fungal mix inoculated at day 0, 7 and 14; for d14 [CFU/ml]: day 14 before re-inoculation; for d21 [CFU/ml]: day 21. As to the method:
An aqueous composition of pH 7 comprising 10% by weight of propyleneglycol (PG) as organic solvent, 0.36% by weight of 2-phenoxyethanol (PE) as antimicrobial and 0.04% by weight of the amide listed in the below table was tested for its preserving activity against fungal contamination (the percentages are weight percent and relate to the total weight of the composition). For this purpose, the samples were contaminated with a fungal mix (including yeasts and molds) consisting of: • Aspergillus brasiliensis DS M 1988 • Rhodotorula mucilaginosa DSM 13621 • Yarrowia lipolytica DS M 8218
To control the efficacy, following control compositions were tested: • “Reference”, consisting of only 10% by weight of propylene glycol in water • “Comparative 1” containing 10% by weight of propylene glycol and amide in the given concentration, but no 2-phenoxyethanol • […] in the given concentration, but no amide.
The samples were inoculated with the fungal mix at day 0, 7 and 14 to obtain a cell density in the range of 1-3×10E+05 CFU/ml (CFU=colony forming units) in the test samples (compositions listed in the below table) and stored at 25° C. for 21 days.
as §1

Take `CCCCCC(CCC)C(=O)N(C)C` (stereo not drawn) [2-Propyl-heptanoyl-N,N-dimethylamide]: in assay [1], the “d7 [CFU/ml]” value was below 10 CFU/ml, the “d14 [CFU/ml]” value is given as 90 CFU/ml and the “d21 [CFU/ml]” value is listed as 2,700 CFU/ml.

For `CCCCCCN(CCCCCC)C(C)=O` [Ethanoyl-N,N-dihexylamide], in assay [2], the “d7 [CFU/ml]” value is listed as 3,100 CFU/ml, the “d14 [CFU/ml]” value is given as 2,750 CFU/ml and the “d21 [CFU/ml]” value was 2,450 CFU/ml. Moreover, in assay [1], the “d7 [CFU/ml]” value came to 75 CFU/ml, the “d14 [CFU/ml]” value stood at 200 CFU/ml and the “d21 [CFU/ml]” value is 1,450 CFU/ml.

For the compound `CC(CC(=O)N(C)C)CC(C)(C)C` (stereo not drawn) [Isononanoyl-N,N-dimethylamide], in assay [2], the “d7 [CFU/ml]” value is given as 3,600 CFU/ml, the “d14 [CFU/ml]” value is reported as 3,350 CFU/ml and the “d21 [CFU/ml]” value is recorded as 15,000 CFU/ml. Besides, in assay [1], the “d7 [CFU/ml]” value is recorded as 3,850 CFU/ml, the “d14 [CFU/ml]” value was 13,500 CFU/ml and the “d21 [CFU/ml]” value is listed as 5,000 CFU/ml.

As to `CCCCN(CCCC)C(=O)CC` [n-Propanoyl-N,N-dibutylamide], in assay [2], the “d7 [CFU/ml]” value is given as 1,750 CFU/ml, the “d14 [CFU/ml]” value was 3,750 CFU/ml and the “d21 [CFU/ml]” value is 25,000 CFU/ml. Also, in assay [1], the “d7 [CFU/ml]” value was 39,500 CFU/ml, the “d14 [CFU/ml]” value is 39,000 CFU/ml and the “d21 [CFU/ml]” value was 23,500 CFU/ml.

As for `CCCCCC(CCC)C(=O)N(C)C` (stereo not drawn) [2-Propylheptanoyl-N,N-dimethylamide], in assay [2], the “d7 [CFU/ml]” value is on record as 5,200 CFU/ml, the “d14 [CFU/ml]” value is reported as 3,250 CFU/ml and the “d21 [CFU/ml]” value was 8,000 CFU/ml.

Consider `CCCCCCCC(=O)N(C)C` [n-Octanoyl-N,N-dimethylamide], for which, in assay [1], the “d7 [CFU/ml]” value was determined as 25 CFU/ml, the “d14 [CFU/ml]” value is 2,100 CFU/ml and the “d21 [CFU/ml]” value was 5,550 CFU/ml.

In the case of `CCCCCCCCCCCC(=O)N(C)C` [Dodecanoyl-N,N-dimethylamide], in assay [2], the “d7 [CFU/ml]” value is recorded as 25 CFU/ml, the “d14 [CFU/ml]” value was 170 CFU/ml and the “d21 [CFU/ml]” value came out at 245 CFU/ml. In assay [1], the “d7 [CFU/ml]” value is on record as below 10 CFU/ml, the “d14 [CFU/ml]” value is reported as below 10 CFU/ml and the “d21 [CFU/ml]” value is reported as 450 CFU/ml.
